pEC50, pIC50: −log10 of the molar value.
Key:
Estrogen receptor beta [1] = molecular target: T1, Estrogen receptor beta (Homo sapiens, UniProt Q92731)
Description: Inhibition of ER beta-mediated transactivation of ERE in HeLa cell luciferase assay

Estrogen receptor = molecular target: T2, Estrogen receptor (Homo sapiens, UniProt P03372)
T2 sequence (P03372 whole entry): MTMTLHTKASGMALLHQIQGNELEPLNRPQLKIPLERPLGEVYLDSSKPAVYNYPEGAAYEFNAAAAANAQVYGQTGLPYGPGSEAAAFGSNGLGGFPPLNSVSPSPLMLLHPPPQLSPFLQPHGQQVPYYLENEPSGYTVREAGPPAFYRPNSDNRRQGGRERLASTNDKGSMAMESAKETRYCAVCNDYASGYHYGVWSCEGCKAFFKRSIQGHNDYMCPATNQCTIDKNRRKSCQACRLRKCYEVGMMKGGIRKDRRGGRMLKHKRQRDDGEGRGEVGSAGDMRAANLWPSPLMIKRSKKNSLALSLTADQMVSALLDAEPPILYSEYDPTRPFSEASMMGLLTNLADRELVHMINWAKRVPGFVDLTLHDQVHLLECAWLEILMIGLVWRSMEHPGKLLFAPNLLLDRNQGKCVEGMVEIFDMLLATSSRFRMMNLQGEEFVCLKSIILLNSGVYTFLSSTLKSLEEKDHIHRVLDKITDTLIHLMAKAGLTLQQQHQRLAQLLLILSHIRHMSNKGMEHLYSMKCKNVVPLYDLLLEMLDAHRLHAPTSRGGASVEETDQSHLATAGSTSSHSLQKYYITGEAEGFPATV
Description: Displacement of [3H]estrone from ER alpha

Estrogen receptor beta [2] = molecular target: T1, Estrogen receptor beta; remark: listed apart in the source

T1 sequence (Q92731 whole entry): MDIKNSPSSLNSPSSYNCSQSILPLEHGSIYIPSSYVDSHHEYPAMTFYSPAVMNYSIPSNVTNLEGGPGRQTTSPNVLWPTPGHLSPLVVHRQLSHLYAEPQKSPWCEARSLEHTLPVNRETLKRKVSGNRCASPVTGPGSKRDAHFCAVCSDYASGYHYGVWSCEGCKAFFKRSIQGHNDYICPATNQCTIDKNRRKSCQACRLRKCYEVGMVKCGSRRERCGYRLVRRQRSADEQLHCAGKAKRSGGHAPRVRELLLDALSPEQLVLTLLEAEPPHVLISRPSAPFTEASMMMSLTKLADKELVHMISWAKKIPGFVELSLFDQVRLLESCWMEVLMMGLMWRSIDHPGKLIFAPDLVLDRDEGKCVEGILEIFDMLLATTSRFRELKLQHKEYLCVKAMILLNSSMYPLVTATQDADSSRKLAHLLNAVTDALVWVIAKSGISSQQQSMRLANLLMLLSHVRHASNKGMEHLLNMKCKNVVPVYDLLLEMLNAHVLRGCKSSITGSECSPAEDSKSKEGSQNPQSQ

Row | SMILES | pEC50 (Estrogen receptor beta [1]) | pIC50 (Estrogen receptor) | pIC50 (Estrogen receptor beta [2])
1 | O=c1c2c(O)cc(O)cc2[nH]c(=S)n1-c1ccc(O)cc1 | 5.70 | 4.95 | 5.16
2 | O=c1c2ccc(O)cc2ncn1-c1ccc(O)cc1 | 6.02 | 4.27 | 5.07
3 | COc1cc(O)cc2ncn(-c3ccc(O)cc3)c(=O)c12 | 5.07 | – | –
4 | Cc1c(O)cc(O)c2c(=O)n(-c3ccc(O)cc3)cnc12 | 5.05 | 4.82 | 5.89
5 | O=c1c2c(O)cc(O)cc2ncn1-c1ccc(O)nc1 | 5.01 | 4.17 | 4.29
6 | Oc1ccc(-c2coc3cc(O)cc(O)c3c2=S)cc1 [THIOGENISTEIN] | 7.85 | 4.25 | 5.87
7 | Oc1ccc(-n2cnc3cc(O)cc(O)c3c2=S)nc1 | 6.76 | 4.56 | 6.29
8 | CCCc1nc2cc(O)cc(O)c2c(=O)n1-c1ccc(O)cc1 | – | 5.27 | 5.49
9 | Nc1cc(O)cc2ncn(-c3ccc(O)cc3)c(=O)c12 | 5.69 | 4.81 | 5.08
10 | O=c1c2c(O)c(I)c(O)cc2ncn1-c1ccc(O)cc1 | 5.79 | – | 5.40
11 | Cc1cc(-n2cnc3cc(O)cc(O)c3c2=O)ccc1O | 5.90 | 4.46 | 5.13
12 | O=c1c2c(O)cc(O)cc2ncn1-c1ccc(O)cc1F | 6.72 | 5.13 | 6.59
13 | CCCc1c(O)cc2ncn(-c3ccc(O)cc3)c(=O)c2c1O | – | 4.97 | 5.14
14 | O=c1c2c(O)cc(O)c(I)c2ncn1-c1ccc(O)cc1 | 6.23 | – | 5.39
15 | O=c1c2ccc(O)cc2nc(-c2ccc(O)cc2)n1-c1ccc(O)cc1 | – | 4.31 | 3.36
16 | O=c1c2c(O)cc(O)cc2ncn1-c1ccc(O)cn1 | 6.45 | 4.01 | 5.45
17 | O=c1c2c(CO)cc(O)cc2ncn1-c1ccc(O)cc1 | 5.35 | 6.92 | 7.62
18 | Cc1cc(O)cc2ncn(-c3ccc(O)cc3)c(=O)c12 | 6.87 | 5.02 | 6.50
19 | O=c1c2c(O)cc(O)cc2ncn1-c1ccc(O)cc1 | 7.12 | 4.95 | 6.75
20 | O=c1[nH]c2cc(O)cc(O)c2c(=O)n1-c1ccc(O)cc1 | 5.88 | 4.15 | 5.03
21 | CCc1nc2cc(O)cc(O)c2c(=O)n1-c1ccc(O)cc1 | 5.90 | 4.71 | 5.24
22 | O=c1c2c(O)cc(O)cc2ncn1-c1ccccc1 | 5.76 | 4.12 | 4.73
23 | O=c1c2c(O)cc(O)cc2ncn1-c1ccc(O)c(F)c1 | 6.93 | 4.35 | 6.19
24 | O=c1c2c(-c3ccccc3)cc(O)cc2ncn1-c1ccc(O)cc1 | 4.93 | 3.99 | 4.51

Row | SMILES | pEC50 (Estrogen receptor beta [1]) | pIC50 (Estrogen receptor) | pIC50 (Estrogen receptor beta [2])
25 | N#Cc1cc(O)cc2ncn(-c3ccc(O)cc3)c(=O)c12 | 5.12 | – | 4.13
26 | O=c1c2c(OS(=O)(=O)C(F)(F)F)cc(O)cc2ncn1-c1ccc(O)cc1 | 5.42 | – | 4.92
27 | COC(=O)c1cc(OC(C)=O)cc2ncn(-c3ccc(OC(C)=O)cc3)c(=S)c12 | 4.95 | – | –
28 | CCCCc1nc2cc(O)cc(O)c2c(=O)n1-c1ccc(O)cc1 | – | 6.75 | 6.60
29 | COC(=O)c1cc(O)cc2ncn(-c3ccc(O)cc3)c(=O)c12 | 5.03 | 4.09 | 5.02
30 | CC(C)c1nc2cc(O)cc(O)c2c(=O)n1-c1ccc(O)cc1 | – | 4.15 | 4.32
31 | CCOc1cc(O)cc2ncn(-c3ccc(O)cc3)c(=O)c12 | – | – | 4.35
32 | Cc1cc(O)ccc1-n1cnc2cc(O)cc(O)c2c1=O | 6.95 | 5.36 | 6.37
33 | O=c1c2c(O)cc(O)cc2ncn1-c1ccc(O)cc1Cl | 6.60 | 5.20 | 6.58
34 | C=C(C)c1cc(O)cc2ncn(-c3ccc(O)cc3)c(=O)c12 | 6.14 | 4.36 | 5.64
35 | Cc1cc(O)cc2ncn(-c3ccc(O)cc3)c(=S)c12 | 6.65 | 5.76 | 7.10
36 | Oc1cc(O)c2c(=S)n(-c3ccc(O)c(F)c3)cnc2c1 | 7.70 | 5.51 | 6.99
37 | COc1cc(O)c2c(=O)n(-c3ccc(O)cc3)c(=S)[nH]c2c1 | 5.42 | – | 4.14
38 | C=Cc1cc(O)cc2ncn(-c3ccc(O)cc3)c(=O)c12 | 6.12 | – | 4.77
39 | Cc1cc(-n2cnc3cc(O)cc(O)c3c2=S)ccc1O | 6.80 | 5.54 | 6.18
40 | Oc1ccc(-n2cnc3cc(O)cc(O)c3c2=S)cc1 | 7.89 | 5.58 | 7.33
41 | O=c1c2c(O)c(I)c(O)c(I)c2ncn1-c1ccc(O)cc1 | 5.71 | – | 4.91
42 | CCc1cc(O)cc2ncn(-c3ccc(O)cc3)c(=O)c12 | 7.21 | 4.88 | 6.58
43 | O=c1c2c(O)cc(O)cc2ncn1-c1cccc(O)c1 | 6.04 | 4.36 | 5.42
44 | CCc1cc(O)cc2ncn(-c3ccc(O)cc3)c(=S)c12 | 7.28 | 5.65 | 6.81
45 | O=c1c2c(O)cc(O)cc2ncn1-c1ccc(O)c(Cl)c1 | 5.93 | 4.26 | 5.14
46 | COc1cc(O)c2c(=O)n(-c3ccc(O)cc3)cnc2c1 | 5.07 | 4.59 | 5.02
47 | Cc1nc2cc(O)cc(O)c2c(=O)n1-c1ccc(O)cc1 | 5.80 | 4.48 | 4.94
48 | O=c1c2c(O)cc(O)cc2nc(Cl)n1-c1ccc(O)cc1 | 5.06 | – | 4.87

— ChEMBL document CHEMBL1146098, “Synthesis and characterization of 3-arylquinazolinone and 3-arylquinazolinethione derivatives as selective estrogen receptor beta modulators” (J Med Chem, 2006)
